In the supplement of paper PMC10307832:

Legend:
Assay in all cases: relative viability (nuclei count vs DMSO), 5 days (fraction); higher = more cells survive
201T = tested on: 201T
Method in brief: (§1)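 A single step with final 0.05% Triton X-100, 1% formaldehyde and 1 ug/ml Hoechst fixed the cells and stained nuclei 5 days after treatment. Lung cancer cell lines in 1536-well plates had been treated by pin tool the day after seeding with one drug alone or a fixed anchor-drug dose plus five library-drug doses (not always all listed) in √10 steps, and nuclei were counted on 4× images. Relative viability is the ratio of nuclei in treated wells to nuclei in vehicle wells, taken as the median of duplicate plates.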

BEN = tested on: BEN
Method in brief: as §1

CAL-12T = tested on: CAL-12T
Method in brief: as §1

COR-L 105 = tested on: COR-L 105
Method in brief: as §1

H3255 = tested on: H3255
Method in brief: as §1

HARA = tested on: HARA
Method in brief: as §1

HCC-15 = tested on: HCC-15
Method in brief: as §1

HCC-827 = tested on: HCC-827
Method in brief: as §1

LC-2-ad = tested on: LC-2-ad
Method in brief: as §1

LK-2 = tested on: LK-2
Method in brief: as §1

LU99A = tested on: LU99A
Method in brief: as §1

LXF-289 = tested on: LXF-289
Method in brief: as §1

NCI-H1437 = tested on: NCI-H1437
Method in brief: as §1

NCI-H1651 = tested on: NCI-H1651
Method in brief: as §1

NCI-H1792 = tested on: NCI-H1792
Method in brief: as §1

NCI-H2085 = tested on: NCI-H2085
Method in brief: as §1

NCI-H2228 = tested on: NCI-H2228
Method in brief: as §1

NCI-H23 = tested on: NCI-H23
Method in brief: as §1

NCI-H2405 = tested on: NCI-H2405
Method in brief: as §1

NCI-H322M = tested on: NCI-H322M
Method in brief: as §1

RERF-LC-KJ = tested on: RERF-LC-KJ
Method in brief: as §1

UMC-11 = tested on: UMC-11
Method in brief: as §1

**Q.** `Cc1cnc(-c2cnc(NCCNc3ccc(C#N)cn3)nc2-c2ccc(Cl)cc2Cl)[nH]1` + CS(=O)(=O)CCNCc1ccc(-c2ccc3ncnc(Nc4ccc(OCc5cccc(F)c5)c(Cl)c4)c3c2)o1 [Lapatinib] (partner 2 µM) was tested. Which relative viability (201T; first compound 0.08 µM) did it give?
**A.** 1.05

**Q.** What about the relative viability (201T; first compound 0.253 µM) of the same compound?
**A.** 0.551

**Q.** What about the relative viability (201T; first compound 0.8 µM) of the same compound?
**A.** 1.01

**Q.** What about the relative viability (201T; first compound 2.53 µM) of the same compound?
**A.** 0.988

**Q.** And the relative viability (BEN; first compound 0.08 µM)?
**A.** 0.615

**Q.** What about the relative viability (BEN; first compound 0.253 µM) of the same compound?
**A.** 0.686

**Q.** And the relative viability (BEN; first compound 0.8 µM)?
**A.** 0.705

**Q.** And the relative viability (BEN; first compound 2.53 µM)?
**A.** 0.621

**Q.** And the relative viability (CAL-12T; first compound 0.253 µM)?
**A.** 0.64

**Q.** What about the relative viability (CAL-12T; first compound 2.53 µM) of the same compound?
**A.** 0.627

**Q.** What about the relative viability (COR-L 105; first compound 0.08 µM) of the same compound?
**A.** 0.397

**Q.** What about the relative viability (COR-L 105; first compound 0.253 µM) of the same compound?
**A.** 0.348

**Q.** What about the relative viability (COR-L 105; first compound 0.8 µM) of the same compound?
**A.** 0.318

**Q.** And the relative viability (COR-L 105; first compound 2.53 µM)?
**A.** 0.403

**Q.** And the relative viability (H3255; first compound 0.08 µM)?
**A.** 0.28

**Q.** And the relative viability (H3255; first compound 0.253 µM)?
**A.** 0.249

**Q.** And the relative viability (H3255; first compound 0.8 µM)?
**A.** 0.219

**Q.** And the relative viability (H3255; first compound 2.53 µM)?
**A.** 0.244

**Q.** What about the relative viability (HARA; first compound 0.08 µM) of the same compound?
**A.** 1.03

**Q.** What about the relative viability (HARA; first compound 0.253 µM) of the same compound?
**A.** 0.598

**Q.** And the relative viability (HARA; first compound 0.8 µM)?
**A.** 0.799

**Q.** What about the relative viability (HARA; first compound 2.53 µM) of the same compound?
**A.** 0.607

**Q.** What about the relative viability (HCC-15; first compound 0.08 µM) of the same compound?
**A.** 0.813

**Q.** And the relative viability (HCC-15; first compound 0.253 µM)?
**A.** 0.577

**Q.** What about the relative viability (HCC-15; first compound 0.8 µM) of the same compound?
**A.** 0.903

**Q.** What about the relative viability (HCC-15; first compound 2.53 µM) of the same compound?
**A.** 0.843

**Q.** And the relative viability (HCC-827; first compound 0.08 µM)?
**A.** 0.189

**Q.** And the relative viability (HCC-827; first compound 0.8 µM)?
**A.** 0.213

**Q.** And the relative viability (HCC-827; first compound 2.53 µM)?
**A.** 0.179

**Q.** And the relative viability (LC-2-ad; first compound 0.08 µM)?
**A.** 1.06

**Q.** What about the relative viability (LC-2-ad; first compound 0.8 µM) of the same compound?
**A.** 0.761

**Q.** And the relative viability (LC-2-ad; first compound 2.53 µM)?
**A.** 0.898

**Q.** And the relative viability (LK-2; first compound 0.08 µM)?
**A.** 1.1

**Q.** What about the relative viability (LK-2; first compound 0.253 µM) of the same compound?
**A.** 0.885

**Q.** And the relative viability (LK-2; first compound 0.8 µM)?
**A.** 0.928

**Q.** And the relative viability (LK-2; first compound 2.53 µM)?
**A.** 0.897

**Q.** And the relative viability (LU99A; first compound 0.08 µM)?
**A.** 1.06

**Q.** And the relative viability (LU99A; first compound 0.253 µM)?
**A.** 0.879

**Q.** What about the relative viability (LU99A; first compound 0.8 µM) of the same compound?
**A.** 1.06

**Q.** What about the relative viability (LU99A; first compound 2.53 µM) of the same compound?
**A.** 1.04

**Q.** What about the relative viability (LXF-289; first compound 0.08 µM) of the same compound?
**A.** 0.957

**Q.** And the relative viability (LXF-289; first compound 0.253 µM)?
**A.** 0.806

**Q.** And the relative viability (LXF-289; first compound 0.8 µM)?
**A.** 0.896

**Q.** And the relative viability (LXF-289; first compound 2.53 µM)?
**A.** 1.04

**Q.** And the relative viability (NCI-H1437; first compound 0.08 µM)?
**A.** 0.848

**Q.** What about the relative viability (NCI-H1437; first compound 0.253 µM) of the same compound?
**A.** 0.715

**Q.** What about the relative viability (NCI-H1437; first compound 0.8 µM) of the same compound?
**A.** 0.805

**Q.** What about the relative viability (NCI-H1437; first compound 2.53 µM) of the same compound?
**A.** 0.793

**Q.** What about the relative viability (NCI-H1651; first compound 0.08 µM) of the same compound?
**A.** 0.937

**Q.** And the relative viability (NCI-H1651; first compound 0.253 µM)?
**A.** 0.712

**Q.** And the relative viability (NCI-H1651; first compound 0.8 µM)?
**A.** 0.862

**Q.** What about the relative viability (NCI-H1651; first compound 2.53 µM) of the same compound?
**A.** 0.917

**Q.** And the relative viability (NCI-H1792; first compound 0.08 µM)?
**A.** 0.927

**Q.** And the relative viability (NCI-H1792; first compound 0.253 µM)?
**A.** 0.756

**Q.** What about the relative viability (NCI-H1792; first compound 0.8 µM) of the same compound?
**A.** 0.862

**Q.** What about the relative viability (NCI-H1792; first compound 2.53 µM) of the same compound?
**A.** 0.866

**Q.** What about the relative viability (NCI-H2085; first compound 0.08 µM) of the same compound?
**A.** 0.837

**Q.** And the relative viability (NCI-H2085; first compound 0.253 µM)?
**A.** 0.8

**Q.** And the relative viability (NCI-H2085; first compound 0.8 µM)?
**A.** 0.786

**Q.** What about the relative viability (NCI-H2085; first compound 2.53 µM) of the same compound?
**A.** 0.848

**Q.** What about the relative viability (NCI-H2228; first compound 0.08 µM) of the same compound?
**A.** 1.23

**Q.** And the relative viability (NCI-H2228; first compound 0.253 µM)?
**A.** 0.904

**Q.** And the relative viability (NCI-H2228; first compound 0.8 µM)?
**A.** 0.911

**Q.** What about the relative viability (NCI-H2228; first compound 2.53 µM) of the same compound?
**A.** 0.781

**Q.** And the relative viability (NCI-H23; first compound 0.08 µM)?
**A.** 1.14

**Q.** What about the relative viability (NCI-H23; first compound 0.253 µM) of the same compound?
**A.** 1.02

**Q.** What about the relative viability (NCI-H23; first compound 0.8 µM) of the same compound?
**A.** 1.07

**Q.** What about the relative viability (NCI-H23; first compound 2.53 µM) of the same compound?
**A.** 1.11

**Q.** And the relative viability (NCI-H2405; first compound 0.08 µM)?
**A.** 1.11

**Q.** And the relative viability (NCI-H2405; first compound 0.253 µM)?
**A.** 1.01

**Q.** What about the relative viability (NCI-H2405; first compound 0.8 µM) of the same compound?
**A.** 0.741

**Q.** What about the relative viability (NCI-H2405; first compound 2.53 µM) of the same compound?
**A.** 0.523

**Q.** What about the relative viability (NCI-H322M; first compound 0.08 µM) of the same compound?
**A.** 0.575

**Q.** What about the relative viability (NCI-H322M; first compound 0.253 µM) of the same compound?
**A.** 0.565

**Q.** And the relative viability (NCI-H322M; first compound 0.8 µM)?
**A.** 0.594

**Q.** What about the relative viability (NCI-H322M; first compound 2.53 µM) of the same compound?
**A.** 0.555

**Q.** And the relative viability (RERF-LC-KJ; first compound 0.08 µM)?
**A.** 0.902

**Q.** And the relative viability (RERF-LC-KJ; first compound 0.253 µM)?
**A.** 0.777

**Q.** And the relative viability (RERF-LC-KJ; first compound 0.8 µM)?
**A.** 0.771

**Q.** What about the relative viability (RERF-LC-KJ; first compound 2.53 µM) of the same compound?
**A.** 0.932

**Q.** And the relative viability (UMC-11; first compound 0.08 µM)?
**A.** 1.22

**Q.** And the relative viability (UMC-11; first compound 0.253 µM)?
**A.** 0.7

**Q.** And the relative viability (UMC-11; first compound 0.8 µM)?
**A.** 0.697

**Q.** And the relative viability (UMC-11; first compound 2.53 µM)?
**A.** 1.09
